Where two headings read alike, the source gives them in different places.
Experiments:
[1] = Iron excretion (urine and stool) by hypertransfused iron-overloaded rats; assay type: in vivo, Sprague-Dawley rats; conditions: for circulation time relative to DFO: intraperitoneal, inferred from increased urinary iron excretion; for Iron excreted, GROSS Stool / Iron excreted, GROSS Urine / Iron excreted, GROSS Stool, per μmole / Iron excreted, GROSS Urine, per μmole / Iron excreted, NET Stool, per μmole / Iron excreted, NET TOTAL, per μmole / Iron excreted, NET Urine, per μmole / Iron excreted, NET Stool / Iron excreted, NET Urine: 100 mg/kg; for Iron excreted, GROSS Stool, per μmole / Iron excreted, GROSS Urine, per μmole / Iron excreted, NET Stool, per μmole / Iron excreted, NET TOTAL, per μmole / Iron excreted, NET Urine, per μmole: normalized to molar dose; for absorption and cleavage after oral administration: inferred from net iron excretion; for Iron excreted, NET Stool / Iron excreted, NET Urine: gross minus background
Experimental: In this model, heat-damaged rat erythrocytes are transfused intraperitoneally (i.p.) on a daily basis.
Deferoxamine mesylate (DFO:Desferal) was obtained from the Ciba Pharmaceutical Company (Summit, N.J.) as a lyophilized powder. For administration to the hypertransfused rats, it was dissolved in physiological saline at a concentration of 10 mg/ml.
A homogeneous solution of acylated derivative was obtained by dissolving the drugs in propylene glycol at a concentration of 30 mg/ml.
Sprague-Dawley rats (60-80 g; Taconic Farms, Germantown, N.Y. (were iron overloaded via daily (5 days/week) intraperitoneal injections of heat-damaged rat erythrocytes. The red blood cells for infusion were purchased from Hilltop Lab Animals, Inc. (Scottsdale, Pa.). They were obtained from retired breeders, the donor animals being exsanguinated via cardiac puncture under CO2 anesthesia. The blood drawn into acid-citrate-dextrose containing gentamicin sulfate (25 g/ml) and shipped on wet ice by overnight express to the testing laboratory. Upon arrival the blood was stored at 4° C. for up to 7 days. Prior to infusion the red cells were slightly damaged by heating at 50° C. for 15 minutes.
The animals were placed on a low iron diet (>10 μg of Fe/g) for one week prior to screening. […] During screening the animals were placed in individual metabolic cages and urine and stool were collected daily. The daily transfusion of heat-damaged red cells was continued throughout drug testing and during intervals of rest between drug evaluations. The compounds were administered either by gavage (orally) or by intraperitoneal injection 4 to 8 hours after the animals were transfused. The dose of each drug was 100 mg/kg/day for 5 days. Urine and stool samples were collected approximately 24 hours after drug administration. They were placed in crucibles, dried at 110° C. and then ashed at 550° C. overnight. Following dissolution of the ash in 3N HCl, the iron content of the samples was determined by atomic absorption spectroscopy.
The iron-overloaded rats were divided into groups of six. Before testing any of the new compounds both positive and negative controls were evaluated. Baseline excretion of iron in the urine and stool of this series of hypertransfused rats was determined in the absence of drug administration (negative control). As a positive control, another group of six animals was given DFO intraperitoneally at a dose of 100 mg/kg (153 micromoles/kg). […] All of the drugs were evaluated both orally and intraperitoneally. The intraperitoneal effect was used to assess bioavailability.
In the prodrugs, where the hydroxamic acid moieties (iron binding sites) of DFO were blocked, effectiveness upon parenteral administration would indicate that the rat is able to metabolize the prodrug to the active species. Failure to be effective orally could then be attributed to lack of absorption. […] In order to obtain an estimate of the relative iron-chelating potency within the series, the amount of iron excreted in response to the acylated derivatives was normalized to correspond to the molar equivalent of 100 mg/kg DFO.

[2] = cited from earlier work
[3] = Intraperitoneal LD50 in Swiss-Webster mice; conditions: for LD50: mouse, in vivo, ip
[4] = Solubility in water and ordinary organic solvents; assay type: physicochemical; conditions: in words
[5] = ip, 100 mg/kg, DFO (historic), n=54

For CCCC(=O)NCCCCCN(OC(=O)CCC)C(=O)CCC(=O)NCCCCCN(OC(=O)CCC)C(=O)CCC(=O)NCCCCCN(OC(=O)CCC)C(C)=O [BDB3, N-Butyroyl-O,O,O-tributyryl deferoxamine], the “circulation time relative to DFO” value [1] was “circulate for a longer period of time than DFO”, the “Iron excreted, GROSS Stool” value ([1]; ip, acylated derivatives) was 875 µg/kg/day and the “Iron excreted, GROSS Urine” value ([1]; ip, acylated derivatives) was 174 µg/kg/day. The “Iron excreted, GROSS Stool, per μmole” value ([1]; ip) was 7.35 µg/kg/day/µmol, the “Iron excreted, GROSS Urine, per μmole” value ([1]; ip) was 1.46 µg/kg/day/µmol and the “Iron excreted, NET Stool, per μmole” value ([1]; ip) was 5.17 µg/kg/day/µmol. The “Iron excreted, NET TOTAL, per μmole” value ([1]; ip) was 6.12 µg/kg/day/µmol, the “Iron excreted, NET Urine, per μmole” value ([1]; ip) was 0.95 µg/kg/day/µmol and the “absorption and cleavage after oral administration” value (shortened to “absorption and cleavage”) ([1]; oral) was “efficiently absorbed and subsequently cleaved”. The “Iron excreted, GROSS Stool” value ([1]; po) was 507 µg/kg/day, the “Iron excreted, GROSS Urine” value ([1]; po) was 91 µg/kg/day and the “Iron excreted, GROSS Stool, per μmole” value ([1]; po) was 4.26 µg/kg/day/µmol. The “Iron excreted, GROSS Urine, per μmole” value ([1]; po) was 0.76 µg/kg/day/µmol, the “Iron excreted, NET Stool, per μmole” value ([1]; po) was 2.08 µg/kg/day/µmol and the “Iron excreted, NET TOTAL, per μmole” value ([1]; po) was 2.33 µg/kg/day/µmol. The “Iron excreted, NET Urine, per μmole” value ([1]; po) was 0.25 µg/kg/day/µmol.

With CC(=O)N(O)CCCCCNC(=O)CCC(=O)N(O)CCCCCNC(=O)CCC(=O)N(O)CCCCCN [DFO, N'-[5-[[4-[[-5-(acetylhydroxamino)pentyl]amino]-1,4-dioxobutyl]hydroxyamino]pentyl]-N-(5-aminopentyl)-N-hydroxybutanediamide, reference compound] the “Iron excreted, NET Stool” value ([1]; ip, DFO (historic)) was 465 µg/kg/day, the “Iron excreted, NET Urine” value ([1]; ip, DFO (historic)) was 87 µg/kg/day and the “Iron excreted, GROSS Stool, per μmole” value ([1]; ip) was 5.60 µg/kg/day/µmol. The “Iron excreted, GROSS Urine, per μmole” value ([1]; ip) was 1.18 µg/kg/day/µmol, the “Iron excreted, NET Stool, per μmole” value ([1]; ip) was 3.42 µg/kg/day/µmol and the “Iron excreted, NET TOTAL, per μmole” value ([1]; ip) was 4.09 µg/kg/day/µmol. The “Iron excreted, NET Urine, per μmole” value ([1]; ip) was 0.67 µg/kg/day/µmol, the “Iron excreted, GROSS Stool” value ([1]; po) was 398 µg/kg/day and the “Iron excreted, GROSS Urine” value ([1]; po) was 98 µg/kg/day. The “Iron excreted, GROSS Stool, per μmole” value ([1]; po) was 2.60 µg/kg/day/µmol, the “Iron excreted, GROSS Urine, per μmole” value ([1]; po) was 0.64 µg/kg/day/µmol and the “Iron excreted, NET Stool, per μmole” value ([1]; po) was 0.03 µg/kg/day/µmol. For the same compound, the “Iron excreted, NET TOTAL, per μmole” value ([1]; po) was 0.06 µg/kg/day/µmol, the “Iron excreted, NET Urine, per μmole” value ([1]; po) was 0.03 µg/kg/day/µmol and the “Iron excreted, NET Stool” value ([1]; po) was 6 µg/kg/day. For the same compound, the “Iron excreted, NET Urine” value ([1]; po) was 5 µg/kg/day, the “Iron excreted, GROSS Stool” value [2, 5] was 857 µg/kg/day and the “Iron excreted, GROSS Urine” value [2, 5] was 180 µg/kg/day. The “effectiveness of oral relative to parenteral administration” value ([2]; oral vs parenteral, historical data) was “less than 10%” and the LD50 [3] was 800 mg/kg.

In the case of CCCCCCCCCCCCCC(=O)NCCCCCN(OC(=O)CC)C(=O)CCC(=O)NCCCCCN(OC(=O)CC)C(=O)CCC(=O)NCCCCCN(OC(=O)CC)C(C)=O [MDP3, N-Myristoyl-O,O,O-tripropionyl deferoxamine], the “Iron excreted, GROSS Stool” value ([1]; ip, acylated derivatives) is reported as 434 µg/kg/day, the “Iron excreted, GROSS Urine” value ([1]; ip, acylated derivatives) is reported as 134 µg/kg/day and the “Iron excreted, GROSS Stool, per μmole” value ([1]; ip) is reported as 4.06 µg/kg/day/µmol. For the same compound, the “Iron excreted, GROSS Urine, per μmole” value ([1]; ip) was 1.25 µg/kg/day/µmol, the “Iron excreted, NET Stool, per μmole” value ([1]; ip) was 1.88 µg/kg/day/µmol and the “Iron excreted, NET TOTAL, per μmole” value ([1]; ip) was 2.62 µg/kg/day/µmol. For the same compound, the “Iron excreted, NET Urine, per μmole” value ([1]; ip) was 0.74 µg/kg/day/µmol, the “increase of potency (absorption) on lengthening N-terminal amide from 3 to 14 carbons” value ([1]; oral, MDP3 vs PDP3) was “two-thirds” and the “Iron excreted, GROSS Stool” value ([1]; po) was 551 µg/kg/day. For the same compound, the “Iron excreted, GROSS Urine” value ([1]; po) was 88 µg/kg/day, the “Iron excreted, GROSS Stool, per μmole” value ([1]; po) was 5.15 µg/kg/day/µmol and the “Iron excreted, GROSS Urine, per μmole” value ([1]; po) was 0.82 µg/kg/day/µmol. For the same compound, the “Iron excreted, NET Stool, per μmole” value ([1]; po) was 2.97 µg/kg/day/µmol, the “Iron excreted, NET TOTAL, per μmole” value ([1]; po) was 3.28 µg/kg/day/µmol and the “Iron excreted, NET Urine, per μmole” value ([1]; po) was 0.31 µg/kg/day/µmol.

With CCCCCCCC(=O)ON(CCCCCNC(=O)CCC(=O)N(CCCCCNC(=O)CCC(=O)N(CCCCCN(C(C)=O)C(=O)CCCCCCC)OC(=O)CCCCCCC)OC(=O)CCCCCCC)C(C)=O [N-acetyl-N-octanoyl-O,O,O-trioctanoyldeferoxamine] the “increase of absorption on adding an N-acyl group” value ([1]; oral, vs N-acetyl-O,O,O-trioctanoyldeferoxamine, earlier unpublished data) was “about 50%”.

With CCCCCCCC(=O)NCCCCCN(O)C(=O)CCC(=O)NCCCCCN(O)C(=O)CCC(=O)NCCCCCN(O)C(C)=O [N-octanoyl-O,O,O-trihydrogendeferoxamine] the “solubility in water and ordinary organic solvents” value [4] was “sparingly soluble”.

For CCC(=O)NCCCCCN(OC(=O)CC)C(=O)CCC(=O)NCCCCCN(OC(=O)CC)C(=O)CCC(=O)NCCCCCN(OC(=O)CC)C(C)=O [PDP3, N-Propionyl-O,O,O-tripropionyl deferoxamine], the “circulation time relative to DFO” value [1] was “circulate for a longer period of time than DFO”, the “Iron excreted, GROSS Stool” value ([1]; ip, acylated derivatives) was 933 µg/kg/day and the “Iron excreted, GROSS Urine” value ([1]; ip, acylated derivatives) was 179 µg/kg/day. For the same compound, the “Iron excreted, GROSS Stool, per μmole” value ([1]; ip) was 7.29 µg/kg/day/µmol, the “Iron excreted, GROSS Urine, per μmole” value ([1]; ip) was 1.40 µg/kg/day/µmol and the “Iron excreted, NET Stool, per μmole” value ([1]; ip) was 5.11 µg/kg/day/µmol. The “Iron excreted, NET TOTAL, per μmole” value ([1]; ip) was 6.00 µg/kg/day/µmol, the “Iron excreted, NET Urine, per μmole” value ([1]; ip) was 0.89 µg/kg/day/µmol and the “absorption and cleavage” value ([1]; oral) was “efficiently absorbed and subsequently cleaved”. For the same compound, the “Iron excreted, GROSS Stool” value ([1]; po) was 496 µg/kg/day, the “Iron excreted, GROSS Urine” value ([1]; po) was 99 µg/kg/day and the “Iron excreted, GROSS Stool, per μmole” value ([1]; po) was 3.88 µg/kg/day/µmol. For the same compound, the “Iron excreted, GROSS Urine, per μmole” value ([1]; po) was 0.77 µg/kg/day/µmol, the “Iron excreted, NET Stool, per μmole” value ([1]; po) was 1.70 µg/kg/day/µmol and the “Iron excreted, NET TOTAL, per μmole” value ([1]; po) was 1.96 µg/kg/day/µmol. For the same compound, the “Iron excreted, NET Urine, per μmole” value ([1]; po) was 0.26 µg/kg/day/µmol.

In the case of CCCCC(=O)NCCCCCN(OC(=O)CCCC)C(=O)CCC(=O)NCCCCCN(OC(=O)CCCC)C(=O)CCC(=O)NCCCCCN(OC(=O)CCCC)C(C)=O [VDV3, N-Valeroyl-O,O,O-trivaleroyl deferoxamine], the “relative activity among derivatives tested” value ([1]; in words) is reported as “most active derivative tested”, the “circulation time relative to DFO” value [1] is reported as “circulate for a longer period of time than DFO” and the “Iron excreted, GROSS Stool” value ([1]; ip, acylated derivatives) is reported as 966 µg/kg/day. The “Iron excreted, GROSS Urine” value ([1]; ip, acylated derivatives) was 184 µg/kg/day, the “Iron excreted, GROSS Stool, per μmole” value ([1]; ip) was 8.63 µg/kg/day/µmol and the “Iron excreted, GROSS Urine, per μmole” value ([1]; ip) was 1.64 µg/kg/day/µmol. The “Iron excreted, NET Stool, per μmole” value ([1]; ip) was 6.45 µg/kg/day/µmol, the “Iron excreted, NET TOTAL, per μmole” value ([1]; ip) was 7.58 µg/kg/day/µmol and the “Iron excreted, NET Urine, per μmole” value ([1]; ip) was 1.13 µg/kg/day/µmol. For the same compound, the “absorption and cleavage” value ([1]; oral) was “efficiently absorbed and subsequently cleaved”, the “iron excretion relative to oral DFO” value ([1]; oral, vs DFO given orally) was “more than 60 times” and the “Iron excreted, GROSS Stool” value ([1]; po) was 599 µg/kg/day. The “Iron excreted, GROSS Urine” value ([1]; po) was 133 µg/kg/day, the “Iron excreted, GROSS Stool, per μmole” value ([1]; po) was 5.35 µg/kg/day/µmol and the “Iron excreted, GROSS Urine, per μmole” value ([1]; po) was 1.19 µg/kg/day/µmol. For the same compound, the “Iron excreted, NET Stool, per μmole” value ([1]; po) was 3.17 µg/kg/day/µmol, the “Iron excreted, NET TOTAL, per μmole” value ([1]; po) was 3.85 µg/kg/day/µmol and the “Iron excreted, NET Urine, per μmole” value ([1]; po) was 0.68 µg/kg/day/µmol. For the same compound, the systemic toxicity ([3]; in words) was “lack of systemic toxicity” and the LD50 [3] was 800 mg/kg.

Reference: patent publication US5550161A, “Substituted orally effective ION chelators related to deferoxamine” (Oral-D, priority 1993, dated 1996)
